The text below walks through data of patent US20140314704A1, “Treatment of B Cell Lymphomas” (Senesco Technologies, Inc., priority 2011, published 2014).

For orientation: IC50 means the midpoint of a concentration-inhibition curve.

Where two headings read alike, the source gives them in different places.

Holding throughout (format): cell-based
One assay relates to KAS-6/1. Briefly: IC50 of multiple myeloma drugs alone and with IC20 SNS01-T, KAS-6/1. The following applies: for fold less IC50 with IC20 SNS01-T: KAS-6/1, with versus without IC20 SNS01-T.
In another assay the test system is U266. Briefly: IC50 of multiple myeloma drugs alone and with IC20 SNS01-T, U266. The following applies: for IC50: Homo sapiens, U-266; for fold less IC50 with IC20 SNS01-T: U266, with versus without IC20 SNS01-T.
The next assay relates to RPMI-8226. Briefly: IC50 of multiple myeloma drugs alone and with IC20 SNS01-T, RPMI-8226. The following applies: for IC50: Homo sapiens; for fold less IC50 with IC20 SNS01-T: RPMI-8226, with versus without IC20 SNS01-T.
Setting [1] is: KAS-6/1, drug alone, read-out: IC50.
The mark [2] stands for this setting: KAS-6/1, with IC20 SNS01-T, read-out: IC50 with IC20 SNS01-T.
Setting [3] is: U266, drug alone, read-out: IC50.
Setting [4] is: U266, with IC20 SNS01-T, read-out: IC50 with IC20 SNS01-T.
The mark [5] stands for this setting: RPMI-8226, drug alone, read-out: IC50.
[6] abbreviates: RPMI-8226, with IC20 SNS01-T, read-out: IC50 with IC20 SNS01-T.

As to `CC(C)C[C@H](NC(=O)[C@H](Cc1ccccc1)NC(=O)c1cnccn1)B(O)O` [Bortezomib, bortezomib], the IC50 in the assay on KAS-6/1 (setting [1]) came out at 7.31 nM; in the assay with KAS-6/1 (setting [2]) it was 2.64 nM; with U266 (setting [3]), 2.86 nM; in the assay with U266 (setting [4]), 0.83 nM; with RPMI-8226 (setting [5]) it was 2.12 nM; in the assay with RPMI-8226 (setting [6]), 1.51 nM. Further, the results for the “fold less IC50 with IC20 SNS01-T” value with KAS-6/1, with U266 and with RPMI-8226 were approximately 2.8 ×, approximately 3.4 × and approximately 1.4 ×, respectively.

Take `Nc1cccc2c1CN(C1CCC(=O)NC1=O)C2=O` (stereo not drawn) [Lenalidomide, lenalidomide]: the IC50 was 69800 nM in the assay on KAS-6/1 (setting [1]); 2370 nM with KAS-6/1 (setting [2]); 62000 nM in the assay with U266 (setting [3]); 1420 nM in the assay on U266 (setting [4]); 84900 nM in the assay on RPMI-8226 (setting [5]); 3280 nM in the assay with RPMI-8226 (setting [6]). Also, the “fold less IC50 with IC20 SNS01-T” value in the assay on KAS-6/1 is listed as approximately 29 ×; in the assay with U266 it was approximately 43.7 ×; with RPMI-8226 it was 25.9 ×.
